For one compound, density of solutions and solubility in water results are on record in patent publication US6451735B1, “Glyphosate formulation” (priority 1998, dated 2002).

A short description of this data set: solubility in water and solution density of glyphosate salt. The format is physicochemical.

Structures can show the parent of a compound that is named as a salt.

With `O=C(O)CNCP(=O)(O)O` [potassium salt of glyphosate, N-phosphonomethylglycine], for the setting “aqueous solution”, the density of solutions entry is on record as “about 1.45 g/cc”. In addition, where the note is “water”, the solubility in water result is recorded as “readily soluble”.
